Reference: patent US20090149420A1, “NOVEL COMPOSITIONS AND USE THEREOF FOR THE TREATMENT, CO-TREATMENT OR PREVENTION OF INFLAMMATORY DISORDERS” (priority 2007, published 2009)

Assays:
Format in all cases: cell-based
Aggrecan = Aggrecan gene expression (mRNA, RT-PCR) in normal human chondrocytes; settings: 500 mg/L; stim., 4 hrs; control set at 100%
Method: (§1) The effect of a MA/HO (1:3 w/w) mixture in combination with chondroitin was tested on the expression of human aggrecan, collage I, collagen II, or chondrocyte transcription factors (SOX-6, -9) in vitro in normal human chondrocytes (derived from knee) (CC-2550; Cambrex, respectively). A control experiment without the compounds was done concomitantly to compare the expression of these genes (percentage expression of gene in controls was set to 100%). Normal human chondrocytes were cultured for 4 hours with MA/HO (1:3 w/w) (at 12.5 μmol/L), chondroitin (at 500 mg/L) as well as with both. The level of mRNA was determined by RT-PCR (Richard et al. Mol. Nutr. Food Res. 49, 431-442, 2005) and expressed relative to the level observed in cells cultured without the substances. The given values indicate the level of gene expression (in % of unstimulated cells [set at 100%] for anabolic and anti-catabolic genes; in % of IL1β-treated cells [set at 100%], for catabolic genes).

TIMP-1 = TIMP-1 gene expression (mRNA, RT-PCR) in normal human chondrocytes; settings: 500 mg/L; unstim., 4 d; % of unstimulated cells set at 100%
Method: as §1, with “Normal human chondrocytes were cultured for 4 hours with MA/HO (1:3 w/w) (at 12.5 μmol/L), chondroitin (at 500 mg/L) as well as with both.” left out

ADAMTS-5 = ADAMTS-5 gene expression (mRNA, RT-PCR) in normal human chondrocytes; settings: 500 mg/L; stim, 4 hrs; % of IL1β-treated cells set at 100%
Method: as §1

MMP-2 = MMP-2 gene expression (mRNA, RT-PCR) in normal human chondrocytes; settings: 500 mg/L; 4 d; % of IL1β-treated cells set at 100%
Method: as §1, with “Normal human chondrocytes were cultured for 4 hours with MA/HO (1:3 w/w) (at 12.5 μmol/L), chondroitin (at 500 mg/L) as well as with both.” left out

SOX-9 = SOX-9 gene expression (mRNA, RT-PCR) in normal human chondrocytes; settings: 500 mg/L; % of unstimulated cells set at 100%
Method: as §1

[1] = tested on: murine macrophage cell line, RAW264.7; assay: Inhibition of nitric oxide synthesis in LPS-stimulated RAW264.7 macrophages (Griess reaction); settings: single substance
Method: The anti-inflammatory effect of a mixture of MA/HO (1:3 w/w) in combination with chondroitin sulfate was determined in cellular assays by measuring the inhibition of the synthesis of nitric oxide. Nitric oxide (NO) is a hallmark of inflammation in various chronic inflammatory diseases including various forms of arthritis, gastro-intestinal diseases and metabolic syndrome X.
The effects on the inflammatory response were tested in cellular assays using a murine macrophage cell line, RAW264.7. The cells were purchased from ATCC (Manassas, Va., USA) and cultured in DMEM containing streptomycin/penicillin, non-essential amino acids and 10% fetal calf serum (FCS). In order to test a large range of concentration of a mixture of MA and HO (1:3) as well as mixtures thereof, cells (˜50,000/well) were seeded into flat-bottomed microtiter plates and cultured for one day. […] Concentrations of nitrite which was rapidly formed from nitric oxide released by cells were determined by the Griess reaction using sodium nitrite as standard. Briefly, 50 μl of supernatant was mixed with Griess reagent 1 (25 μL) and Griess reagent 2 (25 μL), centrifuged and the optical density at 540 nm determined. […] IC50 values for LPS-stimulated cells were calculated using a […] least-square fitting equation [y=A+((B−A)/(1+((C−x)̂D))] for best-fit curves (Excel fit software program). […]

Substance: chondroitin sulfate
- Aggrecan gene expression level (Aggrecan): 62%
- TIMP-1 gene expression level (TIMP-1): 106%
- ADAMTS-5 gene expression level (ADAMTS-5): 107%
- MMP-2 gene expression level (MMP-2): 93%
- SOX-9 gene expression level (SOX-9): 147%
- IC50 Nitric Oxide ([1]; RAW264.7, LPS 1 μg/ml, 24 hours): >50 µg/mL
- anti-inflammatory activity (inhibition of nitric oxide), in words ([1]; RAW264.7, LPS-stimulated): marginal anti-inflammatory
